Measurements reported in the NIST ThermoML archive (doi:10.1021/je8008182).
± gives the expanded uncertainty stated by the source.

Test: xn = mol fraction of the nth substance listed
Conditions: 101 kPa, Liquid; for mass density: Pycnometric method; for viscosity: Capillary tube (Ostwald / Ubbelohde) method

Cc1ccncc1 [4-methylpyridine] + O
Conditions	mass density, 318.15 K [kg/m3]	mass density, 323.15 K [kg/m3]	mass density, 328.15 K [kg/m3]	mass density, 333.15 K [kg/m3]	mass density, 338.15 K [kg/m3]	viscosity, 323.15 K [mPa·s]	viscosity, 328.15 K [mPa·s]	viscosity, 333.15 K [mPa·s]	viscosity, 338.15 K [mPa·s]
x1 = 0.0211	987.5 ± 0.5	985 ± 0.5	983 ± 0.6	979.3 ± 0.6	976.3 ± 0.6	0.6775 ± 0.0063	0.6136 ± 0.0058	0.5649 ± 0.0052	0.5403 ± 0.0051
x1 = 0.0489	983.3 ± 0.6	980.3 ± 0.6	977.3 ± 0.6	974.1 ± 0.6	970.8 ± 0.6	0.8486 ± 0.0078	0.762 ± 0.0074	0.6555 ± 0.0063	0.6149 ± 0.0055
x1 = 0.1143	977.1 ± 0.6	973.4 ± 0.7	969.5 ± 0.7	965.8 ± 0.7	961.7 ± 0.6	1.099 ± 0.01	0.9781 ± 0.0088	0.8941 ± 0.0081	0.8036 ± 0.0085
x1 = 0.225	969 ± 0.7	964.8 ± 0.7	960.4 ± 0.7	956.4 ± 0.7	952.2 ± 0.6	1.304 ± 0.012	1.147 ± 0.01	1.037 ± 0.0092	0.9466 ± 0.0096
x1 = 0.3111	965 ± 0.7	960.7 ± 0.7	956 ± 0.8	951.4 ± 0.8	946.9 ± 0.7	1.279 ± 0.012	1.119 ± 0.01	1.008 ± 0.0091	0.9064 ± 0.0084
x1 = 0.4	961.2 ± 0.8	956.5 ± 0.8	952 ± 0.8	947.5 ± 0.8	942.8 ± 0.8	1.207 ± 0.011	1.069 ± 0.0098	0.9636 ± 0.0088	0.8656 ± 0.008
x1 = 0.5	955.7 ± 0.8	951 ± 0.8	946.3 ± 0.8	941.6 ± 0.8	936.7 ± 0.9	1.136 ± 0.01	1.007 ± 0.0092	0.9199 ± 0.0083	0.8403 ± 0.0083
x1 = 0.6353	945.9 ± 0.8	941.4 ± 0.8	936.7 ± 0.8	931.9 ± 0.8	927.5 ± 0.6	0.9623 ± 0.0085	0.8648 ± 0.0083	0.7522 ± 0.0072	0.6948 ± 0.0061
x1 = 0.75	941.4 ± 0.8	936.7 ± 0.8	932.1 ± 0.8	927.3 ± 0.8	922.6 ± 0.7	0.8112 ± 0.0074	0.7423 ± 0.0068	0.6899 ± 0.0063	0.641 ± 0.0063
x1 = 0.9	937 ± 0.8	932.5 ± 0.8	927.8 ± 0.8	923 ± 0.8	918.5 ± 0.9	0.6516 ± 0.006	0.6014 ± 0.0058	0.5378 ± 0.0053	0.4964 ± 0.0046
x1 = 1	932.1 ± 0.7	927.7 ± 0.8	923.2 ± 0.8	918.5 ± 0.8	914 ± 0.8	0.6505 ± 0.0061	0.5905 ± 0.0058	0.5329 ± 0.0054	0.4815 ± 0.005
